Measured values published in US20090110720A1, “Use of compounds for the prevention of drug-induced cell toxicity” (priority 2005, published 2009).

Target: megalin (Oryctolagus cuniculus, UniProt Z9GY10I8Y6)
Assay: Inhibition of gentamicin binding to immobilized megalin by surface plasmon resonance (Biacore 2000)
Details: 1 mM gentamicin co-injected; megalin purified from rabbit kidneys immobilized on chip; pH 7.4 buffer; FIG. 3; read-out: antagonist concentration at which 50% inhibition of gentamicin binding is obtained
Description: Inhibition of gentamicin binding to immobilized megalin by p-xylylene diamine was assessed by surface plasmon resonance (SPR) analysis on a Biacore 2000 instrument (Biacore, Uppsala, Sweden). Megalin purified from rabbit kidneys as described in Birn et al. (J. Biol. Chem., 1997, Vol. 272, No. 42, 26497-26504) was immobilized in a concentration of 28-40 fmol/mm^2. Samples were dissolved in 10 mM Hepes, 150 mM NaCl, 1.5 mM CaCl2, 1 mM EGTA, 0.005% Tween-20 pH 7.4. The same buffer was used as running buffer. At time zero, p-xylylene diamine at the concentrations indicated (FIG. 3) were applied to the chip and binding as expressed in relative response units (RU), i.e. the difference in response between megalin and a control flow channel, was measured. After 700 sec., 1 mM gentamicin was co-injected with buffer alone or various concentrations of p-xylylene diamine. Inhibition of gentamicin binding is scored as the difference in RU units obtained by injection of gentamicin alone and in the presence of the antagonist. Regeneration of the sensor chip after each analysis cycle was performed with 1.6 M glycine-HCl buffer pH 3.0.
50% inhibition is obtained at an antagonist concentration of about 0.1 mM.

Chain of megalin (Z9GY10I8Y6 26-4660 limits assumed): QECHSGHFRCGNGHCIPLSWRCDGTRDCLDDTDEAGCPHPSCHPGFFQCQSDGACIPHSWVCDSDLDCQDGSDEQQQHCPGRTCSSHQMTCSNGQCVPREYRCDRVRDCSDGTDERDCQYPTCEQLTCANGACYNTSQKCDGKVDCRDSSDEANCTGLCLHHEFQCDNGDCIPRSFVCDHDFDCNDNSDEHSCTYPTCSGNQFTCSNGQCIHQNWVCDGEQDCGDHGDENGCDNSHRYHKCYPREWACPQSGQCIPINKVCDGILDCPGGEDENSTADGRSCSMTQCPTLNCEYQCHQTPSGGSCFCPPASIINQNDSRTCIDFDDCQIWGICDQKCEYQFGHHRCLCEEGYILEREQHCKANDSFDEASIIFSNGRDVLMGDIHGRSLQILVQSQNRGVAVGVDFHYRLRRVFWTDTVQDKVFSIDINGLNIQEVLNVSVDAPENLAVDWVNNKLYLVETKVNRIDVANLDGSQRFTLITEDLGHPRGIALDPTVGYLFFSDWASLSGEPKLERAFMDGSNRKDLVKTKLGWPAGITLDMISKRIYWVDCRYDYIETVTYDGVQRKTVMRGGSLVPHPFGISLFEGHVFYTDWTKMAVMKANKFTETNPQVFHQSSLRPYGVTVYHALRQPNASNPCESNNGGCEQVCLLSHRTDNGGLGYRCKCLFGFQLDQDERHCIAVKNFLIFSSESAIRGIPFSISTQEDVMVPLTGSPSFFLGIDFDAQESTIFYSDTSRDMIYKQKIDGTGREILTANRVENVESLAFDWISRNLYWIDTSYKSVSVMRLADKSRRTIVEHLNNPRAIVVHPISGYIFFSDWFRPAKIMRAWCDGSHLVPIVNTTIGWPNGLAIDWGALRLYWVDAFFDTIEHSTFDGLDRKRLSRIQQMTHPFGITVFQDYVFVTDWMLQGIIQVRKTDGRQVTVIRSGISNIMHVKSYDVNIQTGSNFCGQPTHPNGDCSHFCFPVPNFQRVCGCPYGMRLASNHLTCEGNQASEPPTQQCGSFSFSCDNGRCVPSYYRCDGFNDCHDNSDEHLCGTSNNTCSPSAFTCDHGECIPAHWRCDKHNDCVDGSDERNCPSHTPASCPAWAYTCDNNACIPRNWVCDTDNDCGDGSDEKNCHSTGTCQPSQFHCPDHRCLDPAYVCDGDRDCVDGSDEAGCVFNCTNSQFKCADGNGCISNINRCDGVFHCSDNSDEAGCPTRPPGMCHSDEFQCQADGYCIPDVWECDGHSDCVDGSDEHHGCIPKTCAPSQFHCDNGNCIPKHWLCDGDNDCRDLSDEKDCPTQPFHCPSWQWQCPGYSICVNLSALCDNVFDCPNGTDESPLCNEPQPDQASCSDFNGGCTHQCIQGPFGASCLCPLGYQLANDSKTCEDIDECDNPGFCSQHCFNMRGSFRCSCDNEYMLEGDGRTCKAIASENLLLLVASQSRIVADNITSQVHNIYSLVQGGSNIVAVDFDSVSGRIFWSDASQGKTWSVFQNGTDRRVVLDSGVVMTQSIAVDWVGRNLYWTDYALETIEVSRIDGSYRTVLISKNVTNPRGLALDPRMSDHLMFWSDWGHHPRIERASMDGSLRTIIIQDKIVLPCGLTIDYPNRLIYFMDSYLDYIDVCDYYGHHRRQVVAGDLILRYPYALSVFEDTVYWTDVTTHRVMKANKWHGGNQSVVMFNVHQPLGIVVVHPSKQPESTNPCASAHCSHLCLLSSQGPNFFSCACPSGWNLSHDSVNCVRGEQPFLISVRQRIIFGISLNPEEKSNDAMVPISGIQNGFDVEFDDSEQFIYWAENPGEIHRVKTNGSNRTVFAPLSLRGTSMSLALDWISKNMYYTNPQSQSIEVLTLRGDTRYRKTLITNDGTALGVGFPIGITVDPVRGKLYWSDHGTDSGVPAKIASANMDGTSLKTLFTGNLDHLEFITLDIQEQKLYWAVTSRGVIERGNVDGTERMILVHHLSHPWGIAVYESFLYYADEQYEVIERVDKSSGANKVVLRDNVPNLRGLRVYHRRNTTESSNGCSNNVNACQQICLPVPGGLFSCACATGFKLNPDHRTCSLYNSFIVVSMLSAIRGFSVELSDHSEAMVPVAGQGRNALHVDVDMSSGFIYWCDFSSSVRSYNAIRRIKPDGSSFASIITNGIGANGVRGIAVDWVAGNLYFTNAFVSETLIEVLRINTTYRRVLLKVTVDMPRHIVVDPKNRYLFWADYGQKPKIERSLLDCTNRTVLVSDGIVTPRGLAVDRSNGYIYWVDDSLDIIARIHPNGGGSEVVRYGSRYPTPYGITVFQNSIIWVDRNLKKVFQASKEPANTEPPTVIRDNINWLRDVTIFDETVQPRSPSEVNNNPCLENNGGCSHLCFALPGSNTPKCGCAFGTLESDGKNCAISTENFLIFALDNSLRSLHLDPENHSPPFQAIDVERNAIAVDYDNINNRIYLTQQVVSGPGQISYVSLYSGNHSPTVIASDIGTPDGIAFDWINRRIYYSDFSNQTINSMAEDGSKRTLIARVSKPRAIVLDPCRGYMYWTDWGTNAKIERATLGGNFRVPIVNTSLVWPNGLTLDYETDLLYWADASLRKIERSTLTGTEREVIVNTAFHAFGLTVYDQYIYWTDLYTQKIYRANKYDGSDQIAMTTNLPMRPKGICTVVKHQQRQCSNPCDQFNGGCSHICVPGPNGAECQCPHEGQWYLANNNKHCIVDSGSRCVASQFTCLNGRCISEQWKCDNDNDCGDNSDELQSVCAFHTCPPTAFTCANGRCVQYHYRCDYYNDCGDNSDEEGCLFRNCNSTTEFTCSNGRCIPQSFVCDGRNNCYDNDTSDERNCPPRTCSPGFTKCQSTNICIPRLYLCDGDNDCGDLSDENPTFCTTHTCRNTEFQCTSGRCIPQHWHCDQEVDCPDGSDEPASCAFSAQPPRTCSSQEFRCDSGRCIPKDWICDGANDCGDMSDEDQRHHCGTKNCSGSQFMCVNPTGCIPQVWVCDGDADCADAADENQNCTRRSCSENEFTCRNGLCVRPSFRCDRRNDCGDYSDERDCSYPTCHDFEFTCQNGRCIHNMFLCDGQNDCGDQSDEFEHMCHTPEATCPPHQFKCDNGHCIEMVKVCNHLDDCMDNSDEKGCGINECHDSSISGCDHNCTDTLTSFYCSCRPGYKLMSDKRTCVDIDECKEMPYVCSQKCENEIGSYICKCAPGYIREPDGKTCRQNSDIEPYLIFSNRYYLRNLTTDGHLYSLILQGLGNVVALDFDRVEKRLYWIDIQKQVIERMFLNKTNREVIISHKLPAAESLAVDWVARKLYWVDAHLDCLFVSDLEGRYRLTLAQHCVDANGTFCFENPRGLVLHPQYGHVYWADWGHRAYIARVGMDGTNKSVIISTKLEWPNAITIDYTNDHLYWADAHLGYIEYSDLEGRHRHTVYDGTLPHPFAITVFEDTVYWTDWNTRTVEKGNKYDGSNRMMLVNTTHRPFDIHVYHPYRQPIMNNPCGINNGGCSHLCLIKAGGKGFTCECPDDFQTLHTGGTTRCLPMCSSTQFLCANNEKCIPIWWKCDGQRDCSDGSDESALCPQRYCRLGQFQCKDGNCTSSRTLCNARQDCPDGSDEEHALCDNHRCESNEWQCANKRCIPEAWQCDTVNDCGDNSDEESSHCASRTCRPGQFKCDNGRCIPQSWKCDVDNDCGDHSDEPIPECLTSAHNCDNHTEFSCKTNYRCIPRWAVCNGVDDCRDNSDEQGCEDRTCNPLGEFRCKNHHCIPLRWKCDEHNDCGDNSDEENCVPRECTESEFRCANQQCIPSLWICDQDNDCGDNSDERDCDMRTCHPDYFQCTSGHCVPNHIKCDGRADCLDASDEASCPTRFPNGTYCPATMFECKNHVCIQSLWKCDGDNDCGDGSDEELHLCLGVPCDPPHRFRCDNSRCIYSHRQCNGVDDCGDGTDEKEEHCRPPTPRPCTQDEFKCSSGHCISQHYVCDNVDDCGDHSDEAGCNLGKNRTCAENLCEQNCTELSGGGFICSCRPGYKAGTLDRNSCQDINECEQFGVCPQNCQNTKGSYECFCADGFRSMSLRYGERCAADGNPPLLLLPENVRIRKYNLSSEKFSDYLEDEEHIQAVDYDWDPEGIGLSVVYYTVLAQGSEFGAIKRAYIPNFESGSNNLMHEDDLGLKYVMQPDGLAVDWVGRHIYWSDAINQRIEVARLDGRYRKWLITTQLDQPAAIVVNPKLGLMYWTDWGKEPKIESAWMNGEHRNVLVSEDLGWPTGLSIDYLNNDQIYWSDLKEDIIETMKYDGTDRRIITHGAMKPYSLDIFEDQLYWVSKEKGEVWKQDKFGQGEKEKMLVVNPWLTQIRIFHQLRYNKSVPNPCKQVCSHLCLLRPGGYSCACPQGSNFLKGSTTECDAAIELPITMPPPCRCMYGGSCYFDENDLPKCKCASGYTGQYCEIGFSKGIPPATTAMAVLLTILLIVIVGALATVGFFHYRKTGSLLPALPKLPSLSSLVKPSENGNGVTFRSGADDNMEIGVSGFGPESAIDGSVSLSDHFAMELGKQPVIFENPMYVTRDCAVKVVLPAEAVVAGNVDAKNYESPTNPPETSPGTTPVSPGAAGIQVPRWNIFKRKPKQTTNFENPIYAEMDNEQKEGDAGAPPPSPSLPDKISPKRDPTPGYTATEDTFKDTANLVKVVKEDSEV

IC50: ~100 µM
Compound: NCc1ccc(CN)cc1 [RC043, p-xylylene diamine]
